Experimental data: article PMC9220351, “Evaluation of a Conformationally Constrained Indole Carboxamide as a Potential Efflux Pump Inhibitor in Pseudomonas aeruginosa” (Antibiotics, 2022)

System: P. aeruginosa ATCC 27853 inner membrane potential
Experiment: DiOC2 (3) membrane polarization assay
Type: cell-based, Pseudomonas aeruginosa
Details: Pseudomonas aeruginosa, ATCC27853; read-out: IC50 (DiOC2 (3) membrane polarization, Figure 4A)
Method: RND efflux pumps couple the influx of protons from the proton gradient across the inner membrane to the efflux of drugs and other molecules. […] The effect of TXA09155 on the proton gradient of P. aeruginosa was assessed with a fluorescence-based 3,3′-diethyloxacarbocyanine iodide [DiOC2 (3)] assay that was developed to measure membrane potential changes in Gram-negative bacteria. DiOC2 (3) is a positively charged fluorescent dye that accumulates within cells in a charge-dependent manner, shifting its fluorescence spectrum from green to red at high concentrations due to concentration-dependent dye stacking. […] Azithromycin and CCCP were used as […] controls, respectively.
P. aeruginosa membrane polarization assays were conducted as described previously using strain ATCC 27853. […] DiOC2 (3) fluorescence was recorded in a microplate reader using 450 nm excitation and 670 nm emission (for red fluorescence). Background correction for each concentration of each compound was obtained from reading the fluorescence of compounds in the resuspension buffer without cells. After background correction, fluorescence was normalized to that of the vehicle (DMSO) only. After a 30 min incubation at 37 °C, DiOC2 (3) fluorescence was recorded using a SpectraMax iD5 spectrophotometer (Molecular Devices, San Jose, CA, USA) following excitation at 450 nm. […]

N#CC(C#N)=NNc1cccc(Cl)c1 [CCCP, Carbonyl cyanide 3-chlorophenylhydrazone]
IC50: 15 nM
